Measurements published in US12226410B2, “Methods for enhancing cellular clearance of pathological molecules via activation of the cellular protein ykt6” (NORTHWESTERN UNIVERSITY, priority 2019, dated 2025).

System: GCase
Assay: FTI treatment of DASYN53 mice: GCase maturation and activity in midbrain
Assay type: in vivo
Conditions: i.p. 0.9 mg/kg, 26d
Method: FIGS. 7A, 7B, 7C, 7D, and 7E. FTI treatment restores functional membrane-associated ykt6 complexes in DASYN53 mice. 7A) Immunohistochemistry in the midbrain of mice showing ykt6, tyrosine hydroxylase (TH), NeuN, and nuclei (DAPI). Scale bar, 50 μm. 7B) Ykt6 membrane shift analysis in olfactory bulbs of FTI (LNK-754)-injected DASYN53 mice (12-14 months, i.p. 26d, 0.9 mg/kg) (n=5, non-transgenic (nTg)+veh; n=4, DASYN53+veh; n=4 DASYN53+FTI). GAPDH and sec22b are loading controls. 7C) SEC/western blot analysis of midbrains of FTI-treated DASYN53 mice. Inputs are shown on the left. NSE is a loading control. […] (n=3, nTg+veh; n=4, DASYN53+veh; n=4 DASYN53+FTI). 7D) Quantification of complexes from SEC in 7C. 7E) GCase maturation was assessed in midbrain lysates by endo H resistance (n=4, nTg+veh; n=4, DASYN53+veh; n=4 DASYN53+FTI). For all quantifications, each point represents a measurement from an individual animal. […]
FIGS. 8A, 8B, 8C, 8D, 8E, and 8F. […] 8B & 8C) Quantification of soluble and insoluble a-syn from midbrains of FTI-treated DASYN53 mice normalized to total protein (CBB). […] 8D) Midbrain TH levels were quantified by western blot of FTI-treated DASYN53 mice (n=3). […]
Analysis of post-ER GCase. […] Endo H resistant bands migrating at 62-64 kDa were measured as post-ER forms of GCase, and normalized to GAPDH levels. […]

- enhancement of GCase activity in midbrain: ca. 40%
SMILES: C#Cc1cccc(-c2cc(=O)n(C)c3ccc([C@](O)(c4ccc(Cl)cc4)c4cncn4C)cc23)c1 [LNK-754]
- GCase trafficking (mature, endo H resistant forms) (midbrain lysates): enhanced GCase trafficking
